The source of these data is ChEMBL document CHEMBL4385641 (Bioorg Med Chem, 2019).

Series [1] addresses T1, Cannabinoid receptor 1 (Homo sapiens, UniProt P21554). As to the kind of experiment: Inverse agonist activity at human CB1 receptor expressed in CHOK1 cells co-expressing Galphaq16 assessed as apparent equilibrium constant after 90 secs by […]-4 AM dye-based FLIPR assay. The class given is cell-based.
Series [2] has as its target T1, Cannabinoid receptor 1. The experiment in a line: Displacement of [3H]-CP55940 from human CB1 receptor expressed in CHO cell membranes.
A further series addresses Cannabinoid receptor 2 (Homo sapiens, UniProt P34972). The experiment in a line: Displacement of [3H]-CP55940 from human CB2 receptor expressed in CHO cell membranes. On the technique in general: Displacement assays read how much labelled ligand stays bound in the presence of the test substance.
The next series is filed under the species Homo sapiens. As to the kind of experiment: Selectivity ratio of Ki for displacement of [3H]-CP55940 from human CB2 receptor expressed in CHO cell membranes to Ki for displacement of [3H]-CP55940 from human CB1 receptor expressed in CHO cell membranes.
Series [3] addresses T1, Cannabinoid receptor 1. The experiment in a line: Inverse agonist activity at human CB1 receptor expressed in CHOK1 cells co-expressing Galphaq16 assessed as inhibition of calcium mobilization after 90 secs by […]-4 AM dye-based FLIPR assay. The series is classed as functional, cell-based.
The nature of series [4]: Permeability across apical to basolateral side in MDCK-MDR1 cells at 10 uM incubated for 1 hr by mass spectrometric method. The series is classed as ADME, cell-based, Canis lupus familiaris. The settings on record: dog, mdck-mdr1, 1 h.
Series [5] in a line: Lipophilicity, log D of compound. The settings on record: octanol/water. The class given is physicochemical.
Series [6] can be described thus: Cmax in C57BL6 mouse plasma at […], po by LC-MS/MS analysis. The class given is ADME, organism-based. Further details: dose 2.5 mg/kg, route oral.
Series [7] is described as follows: Ratio of Cmax in brain to plasma in C57BL6 mouse at […], po by LC-MS/MS analysis. The series is classed as ADME, organism-based.
Series [8] can be described thus: Half life in C57BL6 mouse plasma at […], po by LC-MS/MS analysis. The class given is ADME, organism-based.
A short description of series [9]: Half life in human liver microsomes at 1 uM by mass mass spectrometric method. The series is classed as ADME, Microsome.
Series [10] is described as follows: Intrinsic clearance in human liver microsomes at 1 uM incubated for up to 120 mins by mass mass spectrometric method. The series is classed as ADME, Microsome. A general note: Liver microsomes are vesicles of endoplasmic reticulum, rich in cytochrome P450 enzymes.

As a reminder, the Ki is a dissociation constant, usually derived from enzyme kinetics or from competition with a known ligand. Read a low Ki as higher affinity. As a reminder, the EC50 is the concentration that produces a half-maximal response. A word on the logD: it is the decadic logarithm of the distribution of all forms, ionised or not, between an organic phase and buffer at a given pH. A word on the Cmax: it is the maximum level reached in the sampled fluid or tissue. The term half-life denotes how long it takes for the measured level to halve. Read a high half-life as slow loss.

Chain of Cannabinoid receptor 2 (P34972 whole entry): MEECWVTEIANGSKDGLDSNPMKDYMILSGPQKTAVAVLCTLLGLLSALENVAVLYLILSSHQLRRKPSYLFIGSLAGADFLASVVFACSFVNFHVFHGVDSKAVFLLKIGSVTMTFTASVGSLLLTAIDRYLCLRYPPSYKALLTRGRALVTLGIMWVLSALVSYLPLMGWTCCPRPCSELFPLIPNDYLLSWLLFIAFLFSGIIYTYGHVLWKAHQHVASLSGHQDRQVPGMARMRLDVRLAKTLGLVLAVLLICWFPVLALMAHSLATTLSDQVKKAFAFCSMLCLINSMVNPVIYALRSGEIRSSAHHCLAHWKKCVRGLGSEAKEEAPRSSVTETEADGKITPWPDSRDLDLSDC
T1 sequence (P21554 whole entry): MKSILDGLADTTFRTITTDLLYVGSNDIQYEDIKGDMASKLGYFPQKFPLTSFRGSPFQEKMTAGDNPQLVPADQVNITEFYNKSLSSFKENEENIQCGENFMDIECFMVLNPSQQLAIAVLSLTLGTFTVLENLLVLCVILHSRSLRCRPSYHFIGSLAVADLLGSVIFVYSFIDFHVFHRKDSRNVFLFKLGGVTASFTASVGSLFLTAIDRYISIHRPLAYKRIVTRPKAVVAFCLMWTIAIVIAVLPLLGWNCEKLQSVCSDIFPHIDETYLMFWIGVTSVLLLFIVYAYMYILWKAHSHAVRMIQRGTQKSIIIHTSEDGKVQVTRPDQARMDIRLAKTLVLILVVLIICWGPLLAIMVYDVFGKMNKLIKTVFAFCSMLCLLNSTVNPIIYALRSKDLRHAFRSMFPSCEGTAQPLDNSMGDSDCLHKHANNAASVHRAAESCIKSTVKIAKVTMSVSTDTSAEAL

Take `O=S(=O)(NC1CCN(c2ncnc3c2nc(-c2ccccc2Cl)n3-c2ccc(Cl)cc2)CC1)c1ccccc1F`: the Ke(app) on Cannabinoid receptor 1 [1] is 0.8 nM. The figures for the Ki at Cannabinoid receptor 1 [2] and at Cannabinoid receptor 2 were 0.38 nM and 8500 nM, respectively. The Ratio Ki in the series filed under Homo sapiens turned out to be 22000. Also, on Cannabinoid receptor 1 [3], the EC50 was 287 nM.
For the molecule `O=C(NC1CCN(c2ncnc3c2nc(-c2ccccc2Cl)n3-c2ccc(Cl)cc2)CC1)c1ccccc1F`, the Ke(app) at Cannabinoid receptor 1 [1] is 0.6 nM. In addition, the Ki is 0.98 nM on Cannabinoid receptor 1 [2] and 6000 nM at Cannabinoid receptor 2. Further, the Ratio Ki in the series filed under Homo sapiens amounted to 6000. This molecule registered a permeability in [4] of 0.1%. Besides, the concentration for a half-maximal effect (EC50) at Cannabinoid receptor 1 [3] is 94.8 nM.
Consider `N=C(Nc1ccc(F)cc1)NC1CCN(c2ncnc3c2nc(-c2ccccc2Cl)n3-c2ccc(Cl)cc2)CC1`, for which the Ke(app) at Cannabinoid receptor 1 [1] is 300 nM. The logD in [5] was 4.6.
On to `O=S(=O)(NC1CCN(c2ncnc3c2nc(-c2ccccc2Cl)n3-c2ccc(Cl)cc2)CC1)c1ccc(F)c(F)c1`, for which the Ke(app) at Cannabinoid receptor 1 [1] was 0.5 nM. For the same molecule, the Ki on Cannabinoid receptor 1 [2] was 1.7 nM; on Cannabinoid receptor 2, above 10000 nM. For the same molecule, the Ratio Ki in the series filed under Homo sapiens was above 5000. The same molecule gave a permeability in series [4] below 0.1%. The molecule also gave a Cmax in series [6] of 12 ng/mL. For the same molecule, the Ratio in series [7] worked out at 0.31. The molecule also had a half-life in [8] of 5.3 h.
For `O/N=C(\c1ccc(F)cc1)C1CCN(c2ncnc3c2nc(-c2ccccc2Cl)n3-c2ccc(Cl)cc2)CC1` (stereo in doubt; 20), the Ki on Cannabinoid receptor 1 [2] was 5 nM; on Cannabinoid receptor 2, above 10000 nM. In series [9] (liver microsomes), this molecule displayed a half-life at 1 µM of 1.1 h. In [10] (liver microsomes, read-out: CLH), the microsomal CLint at 1 µM is 19 µL/min/mg.
In the case of `O=C(NC1CCN(c2ncnc3c2nc(-c2ccccc2Cl)n3-c2ccc(Cl)cc2)CC1)c1ccc(F)cc1F`, the Ke(app) at Cannabinoid receptor 1 [1] was 1.2 nM. The Ki on Cannabinoid receptor 1 [2] is 2 nM; at Cannabinoid receptor 2, above 7000 nM. For the same molecule, the Ratio Ki in the series filed under Homo sapiens was above 3500. Further, the permeability in [4] is below 0.1%.
For `CC(C(=O)NC1CCN(c2ncnc3c2nc(-c2ccccc2Cl)n3-c2ccc(Cl)cc2)CC1)c1ccccc1` (configuration not stated), in that order: 2 nM, 3 nM, 150 nM, 50 and below 0.1%.
On to `O=C(NC1CCN(c2ncnc3c2nc(-c2ccccc2Cl)n3-c2ccc(Cl)cc2)CC1)c1ccc(F)cc1`, for which, at Cannabinoid receptor 1 [1], the Ke(app) was 1.1 nM. For the same molecule, the figures for the Ki on Cannabinoid receptor 1 [2] and at Cannabinoid receptor 2 were 2 nM and 10000 nM, respectively. Further, the Ratio Ki in the series filed under Homo sapiens worked out at 5000. Moreover, in [4], the permeability amounted to 0.2%.
`COCCOC(=O)NC1CCN(c2ncnc3c2nc(-c2ccccc2Cl)n3-c2ccc(Cl)cc2)CC1`: the Ke(app) at Cannabinoid receptor 1 [1] was 6 nM. In addition, the Ki on Cannabinoid receptor 1 [2] is 17 nM; on Cannabinoid receptor 2, above 5000 nM. The Ratio Ki in the series filed under Homo sapiens was above 200. This molecule had a permeability in series [4] of 13%.
As to `CCCCC(=O)NC1CCN(c2ncnc3c2nc(-c2ccccc2Cl)n3-c2ccc(C(F)(F)F)nc2)CC1`, the Ke(app) on Cannabinoid receptor 1 [1] was 4 nM. Also, the Ki at Cannabinoid receptor 1 [2] turned out to be 3 nM; at Cannabinoid receptor 2 it was 420 nM. Moreover, in the series filed under Homo sapiens, the Ratio Ki was 140. This molecule also displayed a permeability in [4] of 28%.
Regarding `Clc1ccc(-n2c(-c3ccccc3Cl)nc3c(N4CCC(Nc5ccccn5)CC4)ncnc32)cc1`, on Cannabinoid receptor 1 [1], the Ke(app) is 54 nM. The Ki on Cannabinoid receptor 1 [2] was determined as 2.4 nM; on Cannabinoid receptor 2 it was 3100 nM. Moreover, in the series listed under Homo sapiens, the Ratio Ki was 1300. Also, the permeability in series [4] was 0.1%. The molecule further returned a Cmax in series [6] of 38 ng/mL. Moreover, in series [7], the Ratio is reported as 0.45. For the same molecule, in [8], the half-life was 7.4 h.
Take `O/N=C(\c1ccc(F)cc1)C1CCN(c2ncnc3c2nc(-c2ccccc2Cl)n3-c2ccc(Cl)cc2)CC1` (stereo in doubt; 21): the figures for the Ki at Cannabinoid receptor 1 [2] and on Cannabinoid receptor 2 (cho) were 7 nM and above 10000 nM, respectively. Moreover, the t1/2 in [9] (microsomes, 1 µM) amounted to 1.68 h. In series [10] (microsomes, 2 h, 1 µM), the CLH was 12 µL/min/mg.
